Data on 89 compounds can be found in a melting point compilation (Tetko et al.; mined from patent text by program, amines drawn as free bases though some values may be those of a salt).

Molecules are shown by their SMILES.

A word on the melting point: it is the temperature of the solid-liquid transition. Consider `CS(=O)(=O)CCC(=O)Nc1ccc(OCC(O)CO)cc1` (centres undefined), for which the melting point was 160 to 162 °C.

The compound `CCCCC1OC(=O)c2cc(NC(C)=O)c([N+](=O)[O-])cc21` (centres undefined) came in with a melting point of 167 to 169 °C.

`COc1c(OS(=O)(=O)c2ccc(C)cc2)cc2c(c1OC)C1=C(CCC1)C(N1C(=O)c3ccccc3C1=O)CC2` (centres undefined) yielded a melting point of 139 °C.

Turning to `CCCOc1ncc(NC(C)=O)cc1-c1nc2c(CCC)nn(C)c2c(=O)[nH]1`, the melting point lay within 252 to 253 °C.

Regarding `COc1c(C)c(C)c(NC(=O)OC(C)(C)C)c(C)c1Br`, the melting point lay within 159 to 161 °C.

Turning to `Oc1nc2c([nH]1)CCCCC2`, the melting point was 272 °C.

In turn, `CC(C)NC(=O)n1cc(Cl)c(-c2cc(Cl)cc(Cl)c2)n1` registered a melting point of 127 °C.

As for `COC(=O)c1cc(Oc2ccc(F)cc2F)ncc1N`, the melting point is 102 to 104 °C.

The compound `O=C(c1ccccc1)c1ccc(SC(Cl)(Cl)Cl)cc1` registered a melting point of 62 to 63 °C.

For the compound `CCOC(=O)C(C)Oc1ccc(-c2nc(-c3ccc(OC(C)C(=O)OCC)cc3O)nc(-c3c(C)cc(C)cc3C)n2)c(O)c1` (centres undefined), the melting point was in the range of 142 to 147 °C.

Take `Cn1cc(-c2cccc(C(F)(F)F)c2)c(=O)c(-c2ccccc2F)c1`: the melting point was 152 to 154 °C.

In the case of `COc1ccccc1NS(=O)(=O)c1ccc(F)cc1`, the melting point lay within 101 to 102 °C.

In turn, `CCc1ccc(Cl)c(CC)c1NS(=O)(=O)c1cc(S(=O)(=O)Nc2c(CC)ccc(Cl)c2CC)c2cc(O)ccc2c1` yielded a melting point of 142 to 144 °C.

The compound `CS(=O)(=O)Nc1c(C(=O)c2ccccc2)[nH]c2cc(Cl)ccc12` returned a melting point of 215 to 218 °C.

As for `COc1ccc(CNc2n[nH]c3ncnc(Nc4cccc(Cl)c4)c23)cc1Cl`, the melting point lay within 205 to 208 °C.

As for `CN1CCC(Nc2ncc3ncnc(Nc4ccc(Oc5ccccc5)cc4)c3n2)CC1`, the melting point is 157 °C.

`OC1CSC(Oc2ccc(-c3ccsc3)nc2)C(O)C1O` (centres undefined): the melting point was determined as 154 °C.

With `COc1ncc(NC(N)=S)c(OC)n1`, the melting point turned out to be 175 °C.

On to `CCOC(=O)COc1ccc(OCC)cc1C(Nc1ccc(C(=N)NC(=O)OC(C)(C)C)cc1)C(=O)OCC` (racemic), for which the melting point is 241 °C.

With `CCc1ccc2nn(-c3cc(C)ccc3O)nc2c1`, the melting point lay in the range of 91 to 91.5 °C.

On to `CCOCc1nc2c(N)nc3ccccc3c2n1CCOCCNC(=O)c1ccccc1`, for which the melting point was in the range of 154 to 156 °C.

Compound `CSc1cnn(C(C)(C)C)c(=O)c1C` had a melting point of 115 to 116 °C.

For the compound `Cc1cc(=O)[nH]c(=O)n1C1OC(CO)C(O)C1O` (centres undefined), the melting point lay in the range of 175 to 177 °C.

Compound `O=C(COc1cccc(C(F)(F)F)c1)N[C@@H](Cc1ccccc1)C(=O)CSCc1ccco1` showed a melting point of 72 to 80 °C.

For the compound `CC(C)N1CCC(c2c[nH]c3ccc(NS(C)(=O)=O)cc23)CC1`, the melting point fell in the range of 104 to 108 °C.

Compound `NC(Cc1noc2ccccc12)=NO` registered a melting point of 160 to 162 °C.

On to `COC(=O)c1cc(O)ccc1NC(=O)c1ccc(Cl)cc1Cl`, for which the melting point lay in the range of 181 to 182 °C.

Compound `Cc1ccc(-c2c(Cl)nc(C#N)n2S(=O)(=O)c2c(C)noc2C)cc1` showed a melting point of 103 to 108 °C.

Take `CC(C)(C)OC(=O)NCCCCC(=O)Nc1cccc(C(=O)O)c1`: the melting point was 188 °C.

In turn, `CC1Cc2cc3c(cc2C(c2ccc([N+](=O)[O-])cc2)=NN1C(N)=NO)OCO3` (centres undefined) registered a melting point of 138 to 145 °C.

Consider `C/C=C/OC(=O)/C=C/N(C)C`, for which the melting point was 48 to 48.5 °C.

With `CCOC(=O)CN1CCN(C(C)(C)C=CC(=O)Nc2cc3c(Nc4ccc(F)c(Cl)c4)ncnc3cc2OCC2CC2)CC1`, the melting point was 165 to 167 °C.

Take `CCOC(=O)C(O)(CC(=O)c1ccc(-c2ccccc2)cc1)C(=O)OCC`: the melting point was in the range of 88 to 88.3 °C.

`CC(C)N(c1ccc(C#N)cc1[N+](=O)[O-])S(=O)(=O)c1ccc(Cl)cc1` had a melting point of 168 °C.

`O=c1c2c(Cc3cccc(C(F)(F)F)c3)n[nH]c2c2cccnc2n1-c1cccc(C(F)(F)F)c1` registered a melting point of 206 to 208 °C.

The compound `CCN(CC)CCOc1ccc(Nc2ncc3c(n2)N(C)C(=O)N(c2ccc(Cl)cc2Cl)C3)cc1` came in with a melting point of 172 °C.

Take `CCOC(=O)CNC(=O)Oc1c(C)n(CC)ccc1=O`: the melting point is 102 to 103 °C.

In the case of `CNCC1Cc2cc(C(F)(F)F)cc(-c3cccc(F)c3F)c2O1` (centres undefined), the melting point was in the range of 123 to 125 °C.

On to `COc1ccc2cc3ncc(C#N)c(Cl)c3cc2c1`, for which the melting point was in the range of 242 to 243 °C.

Consider `COc1ccc2cc(C(C)C(O)(P(=O)(O)O)P(=O)(O)O)ccc2c1` (centres undefined), for which the melting point turned out to be 205 °C.

`Oc1ccc(-n2nnnc2C2CC2)cc1`: the melting point is 184 °C.

`CCNc1nc(Oc2ccccc2)nc2nc(-c3ccco3)nn12` displayed a melting point of 127 to 129 °C.

Consider `CCOC(=S)C(C=P(c1ccccc1)(c1ccccc1)c1ccccc1)C(=O)C(F)(F)F` (centres undefined), for which the melting point is 190 °C.

Compound `COC(=O)c1ccc([N+](=O)[O-])cc1S(=O)(=O)NC(C)(C)C` registered a melting point of 122 to 124 °C.

In turn, `COC(=O)NCc1nc(C(C)C)c(Sc2cc(Cl)cc(Cl)c2)n1C` had a melting point of 138 to 139 °C.

`Nc1nc(N)c2c(ccc3c2ccn3Cc2ccc(OC(F)(F)F)cc2)n1` came in with a melting point of 205 to 208 °C.

With `CCN(CC)C(=O)n1cnc(Sc2c(C)cccc2C)n1`, the melting point was 111 to 112 °C.

In turn, `OCCON=Cc1ccc(-c2ccccc2)nc1` returned a melting point of 100 to 101 °C.

As for `CCOC(=O)c1c(O)c2ccc(F)cc2c(=O)n1CC(C)C`, the melting point is 104 to 105 °C.

In turn, `Nc1nc(N)c(CCCc2cccc3ccccc23)c(N)n1` yielded a melting point of 181 to 183 °C.

`C/C(=C(\C#N)C(N)=S)N1CCC(O)CC1` gave a melting point of 160 to 163 °C.

Take `N#Cc1[nH]c(-c2ccc(Cl)cc2)c(C#N)c1Br`: the melting point is above 225 °C.

In turn, `CCc1nc(-c2cc(Cl)c(O)c(Cl)c2)no1` gave a melting point of 126 °C.

Compound `O=[N+]([O-])c1c(O)c(O)cc2cc(N=Nc3ccccc3)ccc12` had a melting point of 238 to 244 °C.

With `Cc1ccc(C2c3c(C)c(N4CCN(c5ccccn5)CC4)c(C)c(C)c3OC2(C)C)cc1` (centres undefined), the melting point fell in the range of 190 to 191 °C.

As for `O=C(NCP(=O)(O)c1ccccc1)c1ccccc1`, the melting point is 158 to 160 °C.

`NC=C1Cc2ccccc2C1=O` yielded a melting point of 163 to 165 °C.

With `O=P1(Oc2c(Cl)cc(Cl)cc2Cl)OCC2(CO1)COP(=O)(Oc1c(Cl)cc(Cl)cc1Cl)OC2` (centres undefined), the melting point was 283 °C.

Take `COc1cc(OC)c(-c2nc(N)sc2C)cc1Cl`: the melting point was 188 °C.

Consider `CC(C)(C)OC(=O)[C@H](CC1CC1)N1C(=O)NC(C(F)(F)F)(C(F)(F)F)C1=O`, for which the melting point was in the range of 76 to 77 °C.

For `CN(C)CCC(O)c1ccc(Cl)s1` (centres undefined), the melting point lay within 76 to 77 °C.

Turning to `Cc1oc(-c2ccccc2)nc1COc1ccc(COc2nn(Cc3ccccc3)cc2CCC(=O)O)cc1`, the melting point was 125 to 126 °C.

`Cc1ccc(S(=O)(=O)OCCOc2ccc(OC(F)(F)F)cc2)cc1`: the melting point lay within 35 to 36 °C.

On to `COC(=O)c1ccc2c(c1)Sc1ccc(F)cc1C(O)=C2`, for which the melting point is 85 to 88 °C.

For the compound `CCCC(=O)NCCCc1cccc(OCC2CC2)c1`, the melting point is 36 to 37 °C.

With `CSC(=NCCSCc1ccsn1)NC#N`, the melting point fell in the range of 85 to 87 °C.

`CC(C)(CC(C)(c1ccccc1)c1ccc(O)c(C(=O)O)c1)c1ccccc1` (centres undefined) gave a melting point of 153 to 155 °C.

`O=C1c2ccc(SCc3ccccc3)cc2C(=O)c2cc3ccccc3cc21` showed a melting point of 200 to 203 °C.

In the case of `CCNC(=O)c1ccc(C=C2CC3CCC(C2)N3CCC(C(=O)N(C)C)(c2ccccc2)c2ccccc2)cc1`, the melting point lay within 137 to 139 °C.

As to `O=C(c1ccccc1)N1CCCC(c2ccc(Cl)cc2)=N1`, the melting point lay in the range of 117 to 118 °C.

`CC(Cc1c[nH]c2ccccc12)C1=CCNCC1` (centres undefined) came in with a melting point of 125 °C.

For the compound `CCSC(NC(C)=O)C(=O)NCc1ccccc1` (centres undefined), the melting point lay within 146 to 148 °C.

Consider `CCC1(C)C(=O)c2c(Cl)cc(C)c(C)c2C1=O` (centres undefined), for which the melting point came out at 97 °C.

For `N#CCCN1CCN(P(=S)(N2CCN(CCC#N)CC2)N2CCN(CCC#N)CC2)CC1`, the melting point amounted to 122 °C.

The compound `Cc1c2n(c3ccccc13)C(=O)C(C)(Cc1ncn(C(c3ccccc3)(c3ccccc3)c3ccccc3)c1C)CC2` (centres undefined) registered a melting point of 116 to 118 °C.

The compound `N#Cc1ccc(/C=C/c2nc[nH]c2[N+](=O)[O-])cc1` came in with a melting point above 300 °C.

`Nc1ccc(OCCCCOc2ccc(N)cc2[N+](=O)[O-])c([N+](=O)[O-])c1` yielded a melting point of 194 to 196 °C.

As to `Cc1ccc(-c2ccc(C(=O)Nc3ccc4nc(CN(C)C)ccc4c3)cn2)cc1`, the melting point lay within 220 to 222 °C.

As to `COC(=O)c1nccnc1N(C)c1ccc(Cl)cc1[N+](=O)[O-]`, the melting point lay in the range of 111 to 112 °C.

`Cc1cc[nH]c(=O)c1NC(=O)c1ccccc1` showed a melting point of 264 to 265 °C.

Take `CCc1cc2[nH]c(=O)c(-c3ccccc3)cc2c(CC)n1`: the melting point was above 260 °C.

Compound `CCCCc1oc2ccccc2c1/C=N/OCCCOc1ccc(C(=O)O)c(O)c1` displayed a melting point of 140 to 142 °C.

Compound `O=C(NC1CCCCC1)NC1N=C(c2ccccc2F)c2ccccc2N(CC(=O)N2CC3CCC(CC3)C2)C1=O` (racemic) returned a melting point of 128 to 130 °C.

On to `O=C1OCC2C3OC(C4CCCCC43)C12` (centres undefined), for which the melting point lay within 90 to 91 °C.

For `O=C1C(c2ccccc2)=C(c2ccccc2)C(c2ccccc2)C1c1ccccc1` (centres undefined), the melting point lay in the range of 162 to 163 °C.

`COCCN(C)c1nnc(-c2ccc(-c3ccccc3)nc2)n1-c1cccc2nonc12` returned a melting point of 133 to 134 °C.

Compound `CCc1cn(C(C)C(=O)N(C)C)nc1-c1ccccc1Cl` (centres undefined) showed a melting point of 74 to 76 °C.

`O=C(NC(=O)N(SN1CCOCC1)c1ccc(Oc2ccc(C(F)(F)F)cc2Cl)cc1F)c1c(F)cccc1F` came in with a melting point of 77 to 80 °C.

In turn, `COC(=S)c1ccc2ccc(C(=O)N(C)C)cc2c1` returned a melting point of 123 to 124 °C.
